Data as given in ChEMBL document CHEMBL1140645, “Synthesis and in vitro activity of 2-thiazolylhydrazone derivatives compared with the activity of clotrimazole against clinical isolates of Candida spp” (Bioorg Med Chem Lett, 2007).
≈ marks a conversion by molar mass, not a printed value.

test system: Pichia kudriavzevii; experiment: Antifungal activity against Candida krusei after 24 hrs by broth microdilution method; assay type: functional; conditions: not given

| Compound | MIC [µg/mL] |
| --- | --- |
| Cc1ccc(-c2csc(NN=C3CCCC3)n2)cc1 | 64 (≈ 236 µM) |
| Clc1ccc(-c2csc(NN=C3CCCC3)n2)cc1 | 64 (≈ 219 µM) |
| Brc1ccc(-c2csc(NN=C3CCCC3)n2)cc1 | > 128 |
| CC1CCCC/C1=N\Nc1nc(-c2cccc([N+](=O)[O-])c2)cs1 (centres undefined) | > 128 |
| COc1ccc(-c2csc(NN=C3CCCC3)n2)cc1 | 32 (≈ 111 µM) |
| O=[N+]([O-])c1ccc(-c2csc(NN=C3CCCC3)n2)cc1 | 32 (≈ 106 µM) |
| CC1CCCC/C1=N\Nc1nc(-c2ccc(Br)cc2)cs1 (centres undefined) | 64 (≈ 176 µM) |
| CC1CCCC/C1=N\Nc1nc(-c2ccc(-c3ccccc3)cc2)cs1 (centres undefined) | 16 (≈ 44.3 µM) |

test system: Candida tropicalis; experiment: Antifungal activity against Candida tropicalis after 24 hrs by broth microdilution method; assay type: functional; conditions: not given

| Compound | MIC [µg/mL] |
| --- | --- |
| Cc1ccc(-c2csc(NN=C3CCCC3)n2)cc1 | 4 (≈ 14.7 µM) |
| Clc1ccc(-c2csc(NN=C3CCCC3)n2)cc1 | 32 (≈ 110 µM) |
| Brc1ccc(-c2csc(NN=C3CCCC3)n2)cc1 | ≥ 128 |
| CC1CCCC/C1=N\Nc1nc(-c2cccc([N+](=O)[O-])c2)cs1 (centres undefined) | 64 (≈ 194 µM) |
| COc1ccc(-c2csc(NN=C3CCCC3)n2)cc1 | 64 (≈ 223 µM) |
| O=[N+]([O-])c1ccc(-c2csc(NN=C3CCCC3)n2)cc1 | 64 (≈ 212 µM) |
| CC1CCCC/C1=N\Nc1nc(-c2ccc(Br)cc2)cs1 (centres undefined) | 32 (≈ 87.8 µM) |
| CC1CCCC/C1=N\Nc1nc(-c2ccc(-c3ccccc3)cc2)cs1 (centres undefined) | 64 (≈ 177 µM) |

test system: not listed separately; experiment: Cytotoxicity against human EAhy926 cells assessed as cell survival fraction at 0.5 ug/ml after 24 hrs by trypan blue exclusion test; conditions: ea.hy 926, at 0.5 µg/mL

| Compound | viability at 24 h, 0.5 ug/ml [%] |
| --- | --- |
| Cc1ccc(-c2csc(NN=C3CCCC3)n2)cc1 | 82 |
| Clc1ccc(-c2csc(NN=C3CCCC3)n2)cc1 | 89.2 |
| CC1CCCC/C1=N\Nc1nc(-c2cccc([N+](=O)[O-])c2)cs1 (centres undefined) | 86 |
| COc1ccc(-c2csc(NN=C3CCCC3)n2)cc1 | 82.4 |

test system: Candida parapsilosis; experiment: Antifungal activity against Candida parapsilosis after 24 hrs by broth microdilution method; assay type: functional; conditions: Lodderomyces parapsilosis

| Compound | MIC [µg/mL] |
| --- | --- |
| Cc1ccc(-c2csc(NN=C3CCCC3)n2)cc1 | 128 (≈ 472 µM) |
| Clc1ccc(-c2csc(NN=C3CCCC3)n2)cc1 | 8 (≈ 27.4 µM) |
| Brc1ccc(-c2csc(NN=C3CCCC3)n2)cc1 | 128 (≈ 381 µM) |
| CC1CCCC/C1=N\Nc1nc(-c2cccc([N+](=O)[O-])c2)cs1 (centres undefined) | 8 (≈ 24.2 µM) |
| COc1ccc(-c2csc(NN=C3CCCC3)n2)cc1 | 8 (≈ 27.8 µM) |
| O=[N+]([O-])c1ccc(-c2csc(NN=C3CCCC3)n2)cc1 | > 128 |
| CC1CCCC/C1=N\Nc1nc(-c2ccc(Br)cc2)cs1 (centres undefined) | 8 (≈ 22 µM) |
| CC1CCCC/C1=N\Nc1nc(-c2ccc(-c3ccccc3)cc2)cs1 (centres undefined) | 16 (≈ 44.3 µM) |

test system: Candida albicans; experiment: Antifungal activity against Candida albicans after 24 hrs by broth microdilution method; assay type: functional; conditions: not given

| Compound | MIC [µg/mL] |
| --- | --- |
| Cc1ccc(-c2csc(NN=C3CCCC3)n2)cc1 | 0.25 (≈ 0.921 µM) |
| Clc1ccc(-c2csc(NN=C3CCCC3)n2)cc1 | 0.25 (≈ 0.857 µM) |
| Brc1ccc(-c2csc(NN=C3CCCC3)n2)cc1 | 2 (≈ 5.95 µM) |
| CC1CCCC/C1=N\Nc1nc(-c2cccc([N+](=O)[O-])c2)cs1 (centres undefined) | 0.5 (≈ 1.51 µM) |
| COc1ccc(-c2csc(NN=C3CCCC3)n2)cc1 | 0.5 (≈ 1.74 µM) |
| O=[N+]([O-])c1ccc(-c2csc(NN=C3CCCC3)n2)cc1 | 8 (≈ 26.5 µM) |
| CC1CCCC/C1=N\Nc1nc(-c2ccc(Br)cc2)cs1 (centres undefined) | 4 (≈ 11 µM) |
| CC1CCCC/C1=N\Nc1nc(-c2ccc(-c3ccccc3)cc2)cs1 (centres undefined) | 32 (≈ 88.5 µM) |

test system: [Candida] sake; experiment: Antifungal activity against Candida sake after 24 hrs by broth microdilution method; assay type: functional; conditions: Fermentozyma sake

| Compound | MIC [µg/mL] |
| --- | --- |
| Cc1ccc(-c2csc(NN=C3CCCC3)n2)cc1 | 16 (≈ 59 µM) |
| Clc1ccc(-c2csc(NN=C3CCCC3)n2)cc1 | 16 (≈ 54.8 µM) |
| Brc1ccc(-c2csc(NN=C3CCCC3)n2)cc1 | 32 (≈ 95.2 µM) |
| CC1CCCC/C1=N\Nc1nc(-c2cccc([N+](=O)[O-])c2)cs1 (centres undefined) | 16 (≈ 48.4 µM) |
| COc1ccc(-c2csc(NN=C3CCCC3)n2)cc1 | 32 (≈ 111 µM) |
| O=[N+]([O-])c1ccc(-c2csc(NN=C3CCCC3)n2)cc1 | 16 (≈ 52.9 µM) |
| CC1CCCC/C1=N\Nc1nc(-c2ccc(Br)cc2)cs1 (centres undefined) | 16 (≈ 43.9 µM) |
| CC1CCCC/C1=N\Nc1nc(-c2ccc(-c3ccccc3)cc2)cs1 (centres undefined) | 16 (≈ 44.3 µM) |

test system: Nakaseomyces glabratus; experiment: Antifungal activity against Candida glabrata after 24 hrs by broth microdilution method; assay type: functional; conditions: not given

| Compound | MIC [µg/mL] |
| --- | --- |
| Cc1ccc(-c2csc(NN=C3CCCC3)n2)cc1 | 0.5 (≈ 1.84 µM) |
| Clc1ccc(-c2csc(NN=C3CCCC3)n2)cc1 | 0.5 (≈ 1.71 µM) |
| Brc1ccc(-c2csc(NN=C3CCCC3)n2)cc1 | 2 (≈ 5.95 µM) |
| CC1CCCC/C1=N\Nc1nc(-c2cccc([N+](=O)[O-])c2)cs1 (centres undefined) | 16 (≈ 48.4 µM) |
| COc1ccc(-c2csc(NN=C3CCCC3)n2)cc1 | 2 (≈ 6.96 µM) |
| O=[N+]([O-])c1ccc(-c2csc(NN=C3CCCC3)n2)cc1 | 0.5 (≈ 1.65 µM) |
| CC1CCCC/C1=N\Nc1nc(-c2ccc(Br)cc2)cs1 (centres undefined) | 2 (≈ 5.49 µM) |
| CC1CCCC/C1=N\Nc1nc(-c2ccc(-c3ccccc3)cc2)cs1 (centres undefined) | 64 (≈ 177 µM) |

test system: not listed separately; experiment: Cytotoxicity against human EAhy926 cells assessed as cell survival fraction at 0.05 ug/ml after 24 hrs by trypan blue exclusion test; conditions: ea.hy 926, at 0.05 µg/mL

| Compound | viability at 24 h, 0.05 ug/ml [%] |
| --- | --- |
| Cc1ccc(-c2csc(NN=C3CCCC3)n2)cc1 | 85.4 |
| Clc1ccc(-c2csc(NN=C3CCCC3)n2)cc1 | 86 |
| CC1CCCC/C1=N\Nc1nc(-c2cccc([N+](=O)[O-])c2)cs1 (centres undefined) | 88.8 |
| COc1ccc(-c2csc(NN=C3CCCC3)n2)cc1 | 85 |

test system: not listed separately; experiment: Cytotoxicity against human EAhy926 cells assessed as cell survival fraction at 5 ug/ml after 24 hrs by trypan blue exclusion test; conditions: ea.hy 926, at 5 µg/mL

| Compound | viability at 24 h, 5 ug/ml [%] |
| --- | --- |
| Cc1ccc(-c2csc(NN=C3CCCC3)n2)cc1 | 80 |
| Clc1ccc(-c2csc(NN=C3CCCC3)n2)cc1 | 81 |
| CC1CCCC/C1=N\Nc1nc(-c2cccc([N+](=O)[O-])c2)cs1 (centres undefined) | 85.7 |
| COc1ccc(-c2csc(NN=C3CCCC3)n2)cc1 | 76.6 |

test system: not listed separately; experiment: Cytotoxicity against human EAhy926 cells assessed as cell survival fraction at 50 ug/ml after 24 hrs by trypan blue exclusion test; conditions: ea.hy 926, at 50 µg/mL

| Compound | viability at 24 h, 50 ug/ml [%] |
| --- | --- |
| Cc1ccc(-c2csc(NN=C3CCCC3)n2)cc1 | 75 |
| Clc1ccc(-c2csc(NN=C3CCCC3)n2)cc1 | 64.9 |
| CC1CCCC/C1=N\Nc1nc(-c2cccc([N+](=O)[O-])c2)cs1 (centres undefined) | 83.3 |
| COc1ccc(-c2csc(NN=C3CCCC3)n2)cc1 | 66 |
